This is an account of results in patent US4341756A, “Novel amino-dioxepane intermediates for the synthesis of new non-ionic contrast media” (The Regents of the University of California, priority 1980, dated 1982).

Data set [1] concerns rats. The experiment in a line: Aversive conditioning in rats (preference/avoidance after injection into the lateral ventricle). Format: in vivo. Particulars: for Aversion expressed in relation to Metrizamide: Metrizamide = 1; for % Aversion: injection into the lateral ventricle, average from a group of 10 rats. The method, then:
(§1) Employing conventional procedures, the following tests were carried out and compared with known commercially available contrast media. The following tables indicate the results.
Aversive conditioning in rats: (Test-
ing for preference/avoidance after an injection
into the lateral ventricle via a chronically im-
planted cannula) (Average from a group of 10 rats)

A short description of another data set: Water solubility. The format is physicochemical. Particulars: at 20° C. An excerpt:
(§2) This compound was synthesized as described for the hydroxyacetyl analog (VIIIb). The product was obtained in 69% yield as a colorless glassy solid.

A short description of the next data set: Viscosity. The following applies: 37° C., 300 mgI/ml. Format: physicochemical.
Source text: as §2

For data set [2], the system named is rats. In words: Neurotoxicity: neural deficits after intracisternal injections in rats. The following applies: for Deficit Scores: average of 10 rats, 0 = normal; for Neural deficits: rats. The format is in vivo. The method, then:
as §1
tions in rats with chronically implanted
cannulas into the right ventricle.
Deficit scores were calculated on the basis of a preset rating (average o

A further data set deals with Blepharisma americ. In words: Cell Toxicity: LD50 at 4' of a standardized culture of a protozoan. Format: cell-based. Particulars: for LD50: at 4', standardized culture of Blepharisma americ. How it is done: as §1
(LD50 at 4' of a standardized culture of a
protozoan Blepharisma americ.)

For a further data set, the system named is mice. In words: Systemic Toxicity: LD50 of compound injected intravenously in mice. The format is in vivo. Particulars: intravenous, groups of 10 mice. How it is done: as §1
LD50 (gI/kg bw) of compound injected
intravenously in groups of 10 mice.

Structures are written as SMILES.

Take `CC(O)C(=O)Nc1c(I)c(C(=O)NC(CO)C(O)CO)c(I)c(C(=O)NC(CO)C(O)CO)c1I` (racemic) [VIIIc, 2,4,6-triiodo-5-(2-DL or L-hydroxypropionylamino)-isophthalic acid-bis-N,N'-(1,3,4-trihydroxy-threo-but-2-yl)-amide]: the “Aversion expressed in relation to Metrizamide” value (“Aversion expressed in relation” for short) in the data set on rats [1] turned out to be 3.4 times less aversive. For the same molecule, the “% Aversion” value in the data set on rats [1] is recorded as 9.4%. For the same molecule, in the data set “Water solubility”, the solubility in water is recorded as above 400 mgI/ml. The same molecule returned a viscosity in the data set “Viscosity” of 6.6 cps. Moreover, the entries for the “Deficit Scores” value with rats [2] (40 mg I), in the data set with rats [2] (60 mg I) and with rats [2] (100 mg I) were 0, 3.0 ± 1.73 and 26 ± 3.2, respectively. The “Neural deficits” value in the data set with rats [2] (40 mg I) is on record as “Normal”. Also, the LD50 is listed as 148 mg I/ml in the data set with Blepharisma americ. and 21.3 gI/kg bw with mice. The “Conclusion on toxicity” value with Blepharisma americ. (compared with Iopamidol and Metrizamide) was “lower toxicity than Iopamidol and Metrizamide”.
For the molecule `CC(=O)Nc1c(I)c(C(=O)N[C@H]2C(O)O[C@H](CO)[C@@H](O)[C@@H]2O)c(I)c(N(C)C(C)=O)c1I` (stereo partly shown) [Metrizamide, 3-acetamido-5-(N-methylacetamido) triiodobenzoyl derivative of glucosamine, reference compound], the “Aversion expressed in relation” value in the data set on rats [1] turned out to be 1 times less aversive. In addition, the “% Aversion” value with rats [1] amounted to 29.8%. Also, the “Deficit Scores” value with rats [2] (40 mg I) was 25.3 ± 10.1; in the data set on rats [2] (60 mg I) it was 84.2 ± 12.3. The “Neural deficits” value with rats [2] (100 mg I) is on record as “Death”. Further, the LD50 was determined as 133 mg I/ml in the data set with Blepharisma americ. and 12.1 gI/kg bw in the data set on mice.
`CN(C(=O)CC(=O)N(C)c1c(I)c(C(=O)NC(CO)C(O)CO)c(I)c(C(=O)NC(CO)C(O)CO)c1I)c1c(I)c(C(=O)NC(CO)C(O)CO)c(I)c(C(=O)NC(CO)C(O)CO)c1I` (stereo not drawn) [XVIII, N,N'-bis-Methyl-N,N'-bis [2,4,5-triiodo-3,5-bis-{N,N'-(1,3,4-trihydroxy-threo-but-2-yl)}-carbamoylphenyl]malondiamide]: the “Deficit Scores” value in the data set on rats [2] (40 mg I), in the data set on rats [2] (60 mg I) and in the data set on rats [2] (100 mg I) was 0 in each case. Moreover, the “Neural deficits” value with rats [2] (40 mg I), in the data set on rats [2] (60 mg I) and in the data set with rats [2] (100 mg I) was “Normal” throughout.
`C[C@H](O)C(=O)Nc1c(I)c(C(=O)NC(CO)CO)c(I)c(C(=O)NC(CO)CO)c1I` [Iopamidol, N,N'-di(1',3'-dihydroxypropyl-2') 5-L-lactoylamido triiodoisophthaldiamide, reference compound]: the “Aversion expressed in relation” value with rats [1] was 1.2 times less aversive. In the data set on rats [1], the “% Aversion” value is listed as 24.6%. In addition, the figures for the “Deficit Scores” value in the data set on rats [2] (40 mg I) and in the data set on rats [2] (60 mg I) were 1.75 ± 0.96 and 22.0, respectively. Further, the “Neural deficits” value with rats [2] (100 mg I) is reported as “Death”. The LD50 with Blepharisma americ. stood at 136 mg I/ml; with mice, 18.7 gI/kg bw.
